Results reported in a melting point compilation (Tetko et al.).

Compound | melting point
C1=CC2=CC=C(O2)C2=CC=C(C=CC3=CC=C(O3)C3=CC=C1O3)O2 | 270 to 271 °C
c1ccc(-c2csc3nc4ccccc4n23)cc1 | 140 to 142 °C
CC1(C)OC2OC(CO)C(O)C2O1 (configuration not stated) | 68 to 70 °C
Nc1cc(Cl)c(S(N)(=O)=O)cc1S(N)(=O)=O | 254 °C
OCCC(F)(F)C(F)(F)C(F)(F)C(F)(F)F | -58 °C
CCC(CO)(CO)COCC(CC)(CO)CO | 110 °C
CNC[C@H](O)[C@@H](O)[C@H](O)[C@H](O)CO | 128 °C
CC=NNc1ccc([N+](=O)[O-])cc1[N+](=O)[O-] | 166 °C
CCCCCCCSCCCCCCC | 70 °C
O=C(O)Cc1ccc(CC(=O)O)cc1 | 254 °C
CCC(O)(CC)C1(C)CCC(C(=O)OC)C(C)(C)O1 (configuration not stated) | 162 °C
Brc1ccc(Oc2ccc(Br)c(Br)c2Br)c(Br)c1 | 119 to 121 °C
CCCCCCCCCCCCCCCC(=O)OCC=C(C)C=CC=C(C)C=CC1=C(C)CCCC1(C)C | 28.5 °C
Clc1nc(Br)[nH]c1Cl | 215 to 216 °C
Cc1oc(S(=O)(=O)N(C)C)cc1C(=O)O | 169 °C
ClCOCCl | -41.5 °C
CC1C2Cc3ccc(O)cc3C1(C)CCN2CCc1ccccc1 (configuration not stated) | 181 °C
COC(=O)c1scc(C#N)c1N | 149 to 150 °C
CCOC(=O)C(/C=C1\C(=O)C2(C)CCC1C2(C)C)(/C=C1\C(=O)C2(C)CCC1C2(C)C)CC(C)C (configuration not stated) | 156 °C
O=C(O)C(O)(O)C(O)(O)C(=O)O | 114 °C
COC(=O)CCC(C)C1CCC2C3CCC4CC(=O)CCC4(C)C3CCC12C (configuration not stated) | 116 to 118 °C
CCCC(O)CC(C)C (configuration not stated) | -81 °C
CC(C)(C)c1cc(O)cc(C(C)(C)C)c1 | 88 °C
CCOC(=O)Cn1cnc(Cl)c1Cl | 65 to 67 °C

Compound | melting point
CC(=O)OC1CCC2C3CCC4CC(C#Cc5ccccc5)(OC(C)=O)CCC4(C)C3CCC12C (configuration not stated) | 100 to 111 °C
O=C1C(C(O)c2ccc(Cl)cc2)C(C(F)(F)F)=NN1c1ccccc1 (configuration not stated) | 168 °C
CC(C)CCBr | -112 °C
O=C(Cl)c1nccs1 | 54 to 58 °C
COc1ccccc1/C=C(\C#N)c1nc2ccccc2n1C | 226 °C
COc1ccc(C(=O)C2=NOC3C(=O)N(c4ccc(C(=O)O)cc4)C(=O)C23)cc1 (configuration not stated) | 199 °C
ICC(CI)(CI)CI | 225 °C
O=NN(CC(c1ccccc1)c1ccccc1)CC(c1ccccc1)c1ccccc1 | 179 °C
COc1ccccc1NC(=O)c1cnc(C(C)(C)C)c(Cl)n1 | 118 to 119 °C
CN(C)C(=O)Nc1ccc(SC(F)(F)Cl)c(Cl)c1 | 114 °C
CC(C)(C)C(=O)C(=O)O | 90.5 °C
Clc1ccc(-c2c(Cl)cc(Cl)cc2Cl)cc1 | 65 °C
O=C(CBr)c1ccc(F)c(F)c1 | 28 to 30 °C
CC(=O)SCC(C)C(=O)N1CCCC1C(=O)O (configuration not stated) | 76 to 82 °C
Cc1c(NC(=O)c2cccnc2)c(=O)n(-c2ccccc2)n1C | 253 °C
Cc1nnc(S)n1-c1ccc(OCc2ccccc2)cc1 | 255 to 257 °C
CCOC(=O)Cn1cc(Cl)c(=O)c(Cl)c1 | 209 to 211 °C
CCCC/C=C/CCCC | -73 °C
C=C1OC(=O)OC1(C)C | 26 to 30 °C
COc1ccc(F)c(C=O)c1OC | 46 °C
CCC(C)n1c(=O)[nH]c(C)c(Br)c1=O (configuration not stated) | 158 °C
CC(C)c1nsc(N)n1 | 119 to 120 °C
CCCCCC(C)Br (configuration not stated) | 47 °C
CC(C)(C)OC(=O)N[C@H](CC(=O)O)Cc1ccccc1 | 104 °C

Compound | melting point
COc1nc(C)nc(NC(=O)NS(=O)(=O)c2ccccc2Cl)n1 | 176 °C
O=C1C=C(Nc2cccc(O)c2)c2ccccc2C1=O | 300 °C
CSc1nc(=O)n(C)c2c1CCC2 | 145 to 146 °C
CC1(C)c2cccc(P(C(C)(C)C)C(C)(C)C)c2Oc2c(P(C(C)(C)C)C(C)(C)C)cccc21 | 155 °C
COC1=C(OC)/C(=C/CN=[N+]=[N-])OC1=O | 55 to 57 °C
O=C(C(Cl)(Cl)Cl)C(Cl)(Cl)Cl | -2 °C
CN1CCN(C(=S)SSC(=S)N2CCN(C)CC2)CC1 | 142 to 143 °C
OCCN1CCN(Cc2ccc(F)cc2)CC1 | 55 to 56 °C
Cc1nc(Nc2ncc(C(=O)Nc3c(C)cccc3Cl)s2)cc(N2CCN(CCO)CC2)n1 | 283 °C
CCCCCCCCC(C(=O)O)C(=O)O | 116 °C
CC(=O)Nc1ccc(-c2ccc(NC(C)=O)cc2NC(C)=O)c(NC(C)=O)c1 | 283 °C
NNC(=O)c1ccc(OCc2ccccc2)cc1 | 140 °C
COC(=O)C=Cc1ccc(C=CC(=O)OC)c(NC(C)=O)c1 | 168 °C
O=C(C=CC(=O)Oc1ccccc1)Oc1ccccc1 | 73 °C
CCCCC(CC)COC(=O)c1ccc(C(=O)OCC(CC)CCCC)cc1 (configuration not stated) | 30 to 34 °C
S=C1SCCS1 | 35 °C
ICCCCCCCCI | 16 to 21 °C
N#CCNCC#N | 77 °C
Nc1c(Br)cc([N+](=O)[O-])cc1Br | 207 °C
O=C(O)c1sccc1Cl | 186 °C
CC12CCC3C(CCC4CC=CCC43C)C1CCC2=O (configuration not stated) | 104 °C
CCOC(=O)C=CC(=O)O | 70 °C
FC(F)=C(F)Cl | -109 °C
C/C(=N\CCN)c1c(O)c2ccccc2n(-c2ccccc2)c1=O | > 300 °C

Other lines, results leading:

melting point | Compound
201 to 204 °C | CN(C)c1ccc(C2CC(=O)CC(=O)C2)cc1
194 to 196 °C | COc1ccc2c(c1)CCc1c-2[nH]c2ccc(OC)cc12
150 °C | C/C=C/C1Nn2c(nnc2-c2ccc([N+](=O)[O-])cc2)S1 (configuration not stated)
99 to 100 °C | Cc1ccccc1-n1ncc(C=O)c1C
22 °C | O=[N+]([O-])c1ccc(Cl)c(C(F)(F)F)c1
-70 °C | CCc1ccc2c(c1)CCCC2
181 °C | CC(CC(=O)O)C1CCC2C3C=CC4CC(O)CCC4(C)C3CC(O)C12C (configuration not stated)
42 to 43 °C | O=C=Nc1ccc2c(c1)CCO2
150 °C | CCC(=O)c1ccc(O)cc1
91 to 93 °C | O=C(Oc1c(F)c(F)c(F)c(F)c1F)c1cc(C(F)(F)F)ccc1N1CCOCC1
119 to 120 °C | N#Cc1ccccc1N=C=S
21 °C | COC(=O)c1cccc(Cl)c1
89 to 90 °C | Cc1ccc(OC(C)(C)C(=O)O)c2c1CCC2
111 °C | Oc1ccccc1N1CCCC1
179 °C | Cc1ccc(NN=c2c(C)nc3ccccc3[nH]c2=O)cc1
33 to 38 °C | C[Si](C)(c1ccccc1)[Si](C)(C)c1ccccc1
150 to 152 °C | O=[N+]([O-])c1ccc2ncoc2c1
126 to 132 °C | Brc1c[nH]cn1
40.5 °C | CN(C)C(=O)CCCOC(=O)c1ccccc1
234 to 236 °C | O=C1CCC(c2ccc(N=Cc3ccccc3[N+](=O)[O-])cc2)=NN1

melting point | Compound
54 to 57 °C | OC(c1ccccc1)c1c(F)c(F)c(F)c(F)c1F (configuration not stated)
143 °C | COC(=O)CCc1ccc2c(c1)NC(=O)CC2
234 to 236 °C | O=C(O)[C@H]1NCC[C@@H]1c1ccccc1
171 to 172 °C | CCOC(=O)c1nnn2c1nc(S)c1ccccc12
-43.5 °C | Clc1ccncc1
-43 °C | OCC1CCCCC1
149 °C | CC12CCC3=C(CC[C@]4(C)C(=O)CC[C@@H]34)[C@H]1CCC(=O)C2 (some centres not stated)
267 °C | NS(=O)(=O)c1cc2c(cc1Cl)NCNS2(=O)=O
159 °C | O=C(c1ccccc1)C1SC(=S)N(c2ccccc2)C1=O (configuration not stated)
169 °C | Cc1cc(O)c2ccccc2c1O
208 °C | Cc1ccc(C=NC2=NC(C(F)(F)F)N=N2)cc1 (configuration not stated)
78 to 81 °C | CN(N)C(=O)c1cc(Cl)ccc1N
160 to 164 °C | O=Cc1c[nH]nc1-c1ccc(F)cc1
87 °C | c1coc(C2CNCCN2)c1 (configuration not stated)
226 °C | FC(F)(F)c1ccc(-c2nnn[nH]2)cc1
77 °C | Nc1cccnc1Br
27 °C | Cc1ccc2cccc(C)c2n1
220 °C | O=C(O)[C@@H]1CCCC[C@H]1C(=O)O (relative stereo)
45 to 50 °C | Sc1c(Cl)cccc1Cl
224 to 226 °C | NC(Cc1ccc(F)cc1F)C(=O)O (racemic)

melting point | Compound
145 °C | COC(CNC(c1ccccc1)C(O)c1ccccc1)OC (configuration not stated)
156 °C | N#CC(=CNc1ccccc1)c1ccccc1
73 to 74 °C | N#Cc1cccc(N2CCCC2)n1
19 °C | O=C(OCc1ccccc1)c1ccccc1O
37 to 38 °C | Cc1cc(F)ccc1O
160 to 165 °C | O=C(O)c1nccc2ccccc12
65 to 67 °C | O=Cc1ccc(Sc2ccccn2)o1
-3 °C | CC(=O)c1ccc(C)c(C)c1
130 °C | CC(C)(C)OC(=O)N[C@H](C(=O)O)c1ccc(F)cc1
1 °C | FC(F)(F)c1cccc(Br)c1
37 to 38 °C | O=Cc1ccc2occc2c1
189 °C | O=C(Cn1ccnc1[N+](=O)[O-])NCc1ccccc1
64 °C | Cc1cc(Br)ccc1C#N
205 °C | O=C1OC2(Cc3ccccc31)C(=O)c1ccccc1C2=O
101 °C | N#Cc1ccc(N)c(Cl)c1
211 to 215 °C | O=C(O)CNc1ccc(Br)cc1C(=O)O
110 °C | COc1cc(N)c(Cl)cc1C(=O)NC1CCN(CCCOc2ccc(F)cc2)CC1OC (configuration not stated)
63 to 63.6 °C | CC1=C(C#N)Cc2ccccc21
72 to 74 °C | O=C(O)CCc1cccc(Cl)c1
209 to 212 °C | O=C(O)C=CC(=O)Nc1ccc(F)cc1
